The record followed here is patent US20250129027A1 (APOGEE PHARMACEUTICALS, INC., priority 2023, published 2025).

The target in experiment [1] is human recombinant FAAH (Homo sapiens (Human), UniProt O00519). Nature of the experiment: In vitro inhibition of FAAH activity (fluorescent inhibitor screening kit, AMC arachidonoyl amide). The following applies: human recombinant FAAH; read-out: Inhibition on FAAH activity (IC50). In kind it is biochemical. The method, boiled down:
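Fluorogenic kit assay: AMC arachidonoyl amide is cleaved by human recombinant FAAH, read at 340-360/450-465 nm. Percent inhibition versus non-treated control; IC50 values derived from multiple compound concentrations where tested.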

The target of experiment [2] is human recombinant MAGL (Homo sapiens (Human), UniProt Q99685). Nature of the experiment: In vitro inhibition of MAGL activity (inhibitor screening kit, 4-nitrophenylacetate). The conditions noted are these: human recombinant MAGL. In kind it is biochemical. An outline of the steps: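 Percent inhibition derived from absorbance (405-412 nm) of treated wells relative to untreated enzyme control. Human recombinant MAGL with 4-nitrophenylacetate substrate, whose cleavage yields yellow 4-nitrophenol.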

Molecules are shown by their SMILES.

Chain of human recombinant FAAH (O00519 whole entry): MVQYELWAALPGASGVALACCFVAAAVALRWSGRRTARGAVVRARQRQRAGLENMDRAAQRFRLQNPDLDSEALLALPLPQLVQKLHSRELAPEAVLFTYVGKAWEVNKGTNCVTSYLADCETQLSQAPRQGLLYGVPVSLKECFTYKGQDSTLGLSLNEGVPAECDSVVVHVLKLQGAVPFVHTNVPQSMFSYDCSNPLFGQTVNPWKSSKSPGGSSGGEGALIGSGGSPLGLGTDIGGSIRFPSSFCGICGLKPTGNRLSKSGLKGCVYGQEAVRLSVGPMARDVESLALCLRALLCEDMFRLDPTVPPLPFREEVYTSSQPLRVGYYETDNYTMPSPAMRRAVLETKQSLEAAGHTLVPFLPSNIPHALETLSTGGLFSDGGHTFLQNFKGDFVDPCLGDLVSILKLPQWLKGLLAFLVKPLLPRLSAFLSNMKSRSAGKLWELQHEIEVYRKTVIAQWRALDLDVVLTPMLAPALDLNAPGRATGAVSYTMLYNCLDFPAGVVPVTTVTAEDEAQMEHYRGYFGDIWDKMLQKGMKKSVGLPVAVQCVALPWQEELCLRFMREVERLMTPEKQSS
Chain of human recombinant MAGL (Q99685 whole entry): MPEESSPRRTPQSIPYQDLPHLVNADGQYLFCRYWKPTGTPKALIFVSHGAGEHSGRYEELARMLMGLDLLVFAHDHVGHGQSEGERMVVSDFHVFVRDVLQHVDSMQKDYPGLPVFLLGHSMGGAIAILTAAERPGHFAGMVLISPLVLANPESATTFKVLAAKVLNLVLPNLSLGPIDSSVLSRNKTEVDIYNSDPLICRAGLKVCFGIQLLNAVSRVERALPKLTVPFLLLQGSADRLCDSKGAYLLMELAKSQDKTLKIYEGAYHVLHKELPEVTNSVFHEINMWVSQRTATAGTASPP

As to `Cc1cc(OC(=O)NC2CCC(C)CC2)cc(-c2cncc(-c3ncco3)c2)c1` (stereo not drawn) [Example 102, 3-methyl-5-(5-(oxazol-2-yl)pyridin-3-yl)phenyl (4-methylcyclohexyl)carbamate], the IC50 in experiment [1] is more than 1000 nM; in experiment [2], more than 10000 nM.

In the case of `Cc1ccc(-c2cncc(-c3ncco3)c2)cc1OC(=O)NC1CCCCC1` [Example 95, 2-methyl-5-(5-(oxazol-2-yl)pyridin-3-yl)phenyl cyclohexylcarbamate], the concentration for half-maximal inhibition (IC50) in experiment [1] and in experiment [2] was more than 1000 nM in each case.

Consider `CSc1ccc(OC(=O)NCc2ccccc2)cc1-c1cncc(-c2nnco2)c1` [Example 188, 3-(5-(1,3,4-oxadiazol-2-yl)pyridin-3-yl)-4-(methylthio)phenyl benzylcarbamate], for which the figures for the IC50 in experiment [1] and in experiment [2] were more than 1000 nM and more than 10000 nM, respectively.

Turning to `COc1ccc(OC(=O)NCC2CCCCC2)cc1-c1cncc(-c2nnn[nH]2)c1` [Example 251, 3-(5-(1H-tetrazol-5-yl)pyridin-3-yl)-4-methoxyphenyl (cyclohexylmethyl)carbamate], the 50% inhibitory concentration (IC50) in experiment [1] is more than 1000 nM; in experiment [2], more than 10000 nM.

For the compound `O=C(NC1CCCCC1)Oc1cccc(-c2cncc(-c3nnn[nH]3)c2)c1` [Example 242, 3-(5-(1H-tetrazol-5-yl)pyridin-3-yl)phenyl cyclohexylcarbamate], the IC50 is more than 1000 nM in experiment [1] and more than 10000 nM in experiment [2].

With `O=C(NC1CCCCC1)Oc1cccc(-c2cncc(-c3nnco3)c2)c1` [Example 139, 3-(5-(1,3,4-oxadiazol-2-yl)pyridin-3-yl)phenyl cyclohexylcarbamate], the IC50 in experiment [1] was 10 to 100 nM; in experiment [2], more than 50000 nM.

In the case of `O=C(NCc1ccccc1)Oc1cc(O)cc(-c2cncc(-c3nnco3)c2)c1` [Example 162, 3-(5-(1,3,4-oxadiazol-2-yl)pyridin-3-yl)-5-hydroxyphenyl benzylcarbamate], the IC50 in experiment [1] is approximately 100 nM; in experiment [2] it was more than 10000 nM.

Regarding `O=C(NC1CCCCC1)Oc1ccc(O)c(-c2cncc(-c3nnn[nH]3)c2)c1` [Example 248, 3-(5-(1H-tetrazol-5-yl)pyridin-3-yl)-4-hydroxyphenyl cyclohexylcarbamate], the IC50 was more than 1000 nM in experiment [1] and more than 10000 nM in experiment [2].

With `O=C(NC1CCCCC1)Oc1cccc(-c2cncc(-c3nncs3)c2)c1` [Example 211, 3-(5-(1,3,4-thiadiazol-2-yl)pyridin-3-yl)phenyl cyclohexylcarbamate], the figures for the IC50 in experiment [1] and in experiment [2] were more than 1000 nM and more than 10000 nM, respectively.

Turning to `O=C(NC1CCCC1)Oc1cccc(-c2cncc(-c3nncs3)c2)c1` [Example 210, 3-(5-(1,3,4-thiadiazol-2-yl)pyridin-3-yl)phenyl cyclopentylcarbamate], the IC50 in experiment [1] was approximately 100 nM; in experiment [2], more than 10000 nM.

Regarding `COc1cc(OC(=O)NCC2CCCCC2)cc(-c2cncc(-c3nnco3)c2)c1` [Example 175, 3-(5-(1,3,4-oxadiazol-2-yl)pyridin-3-yl)-5-methoxyphenyl (cyclohexylmethyl)carbamate], the figures for the 50% inhibitory concentration (IC50) in experiment [1] and in experiment [2] were approximately 100 nM and more than 10000 nM, respectively.

On to `CCCCCCCCNC(=O)Oc1cccc(-c2cncc(-c3nnn[nH]3)c2)c1` [Example 238, 3-(5-(1H-tetrazol-5-yl)pyridin-3-yl)phenyl octylcarbamate], for which the IC50 in experiment [1] was 10 to 100 nM; in experiment [2], approximately 10000 nM.

Consider `COc1ccc(OC(=O)NC2CCCC2)cc1-c1cncc(-c2ccco2)c1` [Example 56, 3-(5-(furan-2-yl)pyridin-3-yl)-4-methoxyphenyl cyclopentylcarbamate], for which the IC50 in experiment [1] was 100 to 1000 nM; in experiment [2], more than 10000 nM.

Turning to `O=C(NCC1CCCCC1)Oc1cccc(-c2cncc(-c3ncn[nH]3)c2)c1` [Example 220, 3-(5-(1H-1,2,4-triazol-5-yl)pyridin-3-yl)phenyl (cyclohexylmethyl)carbamate], the IC50 in experiment [1] is 10 to 100 nM; in experiment [2], approximately 10000 nM.

Turning to `O=C(NCc1ccccc1)Oc1cccc(-c2cncc(-c3nnco3)c2)c1` [Example 135, 3-(5-(1,3,4-oxadiazol-2-yl)pyridin-3-yl)phenyl benzylcarbamate], the half-inhibitory concentration (IC50) was more than 100 nM in experiment [1] and more than 50000 nM in experiment [2].

With `O=C(NC1CCCC1)Oc1cccc(-c2cncc(-c3nnco3)c2)c1` [Example 138, 3-(5-(1,3,4-oxadiazol-2-yl)pyridin-3-yl)phenyl cyclopentylcarbamate], the values for the IC50 in experiment [1] and in experiment [2] were 10 to 100 nM and more than 50000 nM, respectively.

In the case of `COc1ccc(OC(=O)NCc2ccccc2)cc1-c1cncc(-c2ccco2)c1` [Example 55, 3-(5-(furan-2-yl)pyridin-3-yl)-4-methoxyphenyl benzylcarbamate], the IC50 in experiment [1] was approximately 1000 nM; in experiment [2] it was approximately 10000 nM.

`O=C(NC1CCCCC1)Oc1cccc(-c2cncc(-c3ncco3)c2)c1` [Example 76, 3-(5-(oxazol-2-yl)pyridin-3-yl)phenyl cyclohexylcarbamate]: the IC50 in experiment [1] was 10 to 1000 nM; in experiment [2], 1000 to 10000 nM.

For the compound `O=C(NC1CCCC1)Oc1cccc(-c2cncc(-c3cccs3)c2)c1` [Example 62, 3-(5-(thiophen-2-yl)pyridin-3-yl)phenyl cyclopentylcarbamate], the IC50 in experiment [1] is 10 to 100 nM; in experiment [2], approximately 10000 nM.

Take `O=C(NCC1CCCCC1)Oc1ccc(O)c(-c2cncc(-c3ncn[nH]3)c2)c1` [Example 227, 3-(5-(1H-1,2,4-triazol-5-yl)pyridin-3-yl)-4-hydroxyphenyl (cyclohexyl methyl) carbamate]: the 50% inhibitory concentration (IC50) was 100 to 1000 nM in experiment [1] and more than 10000 nM in experiment [2].

For `Cc1cc(OC(=O)NC2CCCCCCC2)cc(-c2cncc(-c3ncco3)c2)c1` [Example 104, 3-methyl-5-(5-(oxazol-2-yl)pyridin-3-yl)phenyl cyclooctylcarbamate], the IC50 is 100 to 1000 nM in experiment [1] and approximately 10000 nM in experiment [2].

On to `O=C(NCC1CCCCC1)Oc1ccc(O)c(-c2cncc(-c3nnn[nH]3)c2)c1` [Example 245, 3-(5-(1H-tetrazol-5-yl)pyridin-3-yl)-4-hydroxyphenyl (cyclohexylmethyl)carbamate], for which the 50% inhibitory concentration (IC50) in experiment [1] is more than 1000 nM; in experiment [2] it was more than 10000 nM.

For `O=C(NCc1ccccc1)Oc1cc(F)cc(-c2cncc(-c3nnco3)c2)c1` [Example 196, 3-(5-(1,3,4-oxadiazol-2-yl)pyridin-3-yl)-5-fluorophenyl benzylcarbamate], the IC50 in experiment [1] is more than 1000 nM; in experiment [2], approximately 10000 nM.

As to `CCCCCCCCNC(=O)Oc1cccc(-c2cncc(-c3ccc[nH]3)c2)c1` [Example 35, 3-(5-(1H-pyrrol-2-yl)pyridin-3-yl)phenyl octylcarbamate], the half-maximal inhibitory concentration (IC50) in experiment [1] was 10 to 100 nM; in experiment [2], more than 10000 nM.

On to `O=C(Oc1cccc(-c2cncc(-c3nnco3)c2)c1)N1CC2CC2C1` (stereo not drawn) [Example 148, 3-(5-(1,3,4-oxadiazol-2-yl)pyridin-3-yl)phenyl 3-azabicyclo[3.1.0]hexane-3-carboxylate], for which the results for the IC50 in experiment [1] and in experiment [2] were more than 1000 nM and more than 10000 nM, respectively.

As to `O=C(NC1CCCC1)Oc1cccc(-c2cncc(-c3ccno3)c2)c1` [Example 106, 3-(5-(isoxazol-5-yl)pyridin-3-yl)phenyl cyclopentylcarbamate], the IC50 in experiment [1] is 10 to 100 nM; in experiment [2] it was more than 10000 nM.

With `CC1CCC(NC(=O)Oc2ccc(OC(F)(F)F)c(-c3cncc(-c4nnco4)c3)c2)CC1` (stereo not drawn) [Example 201], the IC50 is 100 to 1000 nM in experiment [1] and more than 1000 nM in experiment [2].

The IC50 is the concentration needed to halve the response being measured.
